Results taken from US7632952B2, “Benzothiazoles and the use thereof as medicaments” (Aventis Pharma S.A., priority 2004, dated 2009).
Counter-ions that a name gives are not always drawn.

Legend:
CDK2/cyclin E = CDK2/cyclin E (Homo sapiens, UniProt P24941); assay: CDK2/cyclin E Flashplate test in 96-well format; assay type: biochemical; details: read-out: CDK2 IC50
Summary of the method: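 CDK2/cyclin E-(His)6 from baculovirus-coinfected Sf21 cells was IMAC-purified. Kinase reaction used biotinylated pRb peptide (10 μM final), [γ-33P]ATP in HEPES pH 7.5 with Mg2+ and DTT, at 30 °C in streptavidin Flashplates. 33P incorporation was scintillation counted and IC50 determined.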

HeLa = HeLa proliferation; assay type: cell-based; details: Homo sapiens, read-out: HeLa proliferation EC50 (nM) DG
Aurora 2 = target: T1, Aurora 2 (Homo sapiens, UniProt O14965); assay: Aurora 2 kinase radioactivity scintillation test; assay type: biochemical
T1 construct: A complete recombinant Aurora 2 enzyme, the N-terminal end of which was labeled with histidine; His tag (N); made in house; host or cells: E. coli
T1 sequence (O14965 1-403): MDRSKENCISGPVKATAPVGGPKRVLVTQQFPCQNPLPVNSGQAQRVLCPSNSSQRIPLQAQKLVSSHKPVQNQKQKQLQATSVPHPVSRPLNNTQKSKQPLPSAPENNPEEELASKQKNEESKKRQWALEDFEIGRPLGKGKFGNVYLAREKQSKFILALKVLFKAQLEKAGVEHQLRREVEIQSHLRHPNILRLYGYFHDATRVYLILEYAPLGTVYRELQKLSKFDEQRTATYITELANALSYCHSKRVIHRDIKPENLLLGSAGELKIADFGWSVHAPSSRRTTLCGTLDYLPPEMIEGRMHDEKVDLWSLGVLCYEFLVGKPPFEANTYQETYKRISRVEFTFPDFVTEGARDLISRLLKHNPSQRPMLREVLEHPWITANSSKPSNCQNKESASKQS
Method: The inhibitory effect of the compounds toward the kinase Aurora 2 is determined via a radioactivity scintillation test.
A complete recombinant Aurora 2 enzyme, the N-terminal end of which was labeled with histidine, was expressed in E. coli and purified to a quality close to homogeneity.
The C-terminal fragment (Q1687-H2101) of an NuMA (nuclear protein which is associated with the Mitotic Apparatus) expressed in E. coli, and the N-terminal end of which was labeled with histidine, was purified by chromatography with nickel chelate and used as substrate in the Aurora 2 kinase test.
The kinase activity of Aurora 2 is measured by scintillation on a microplate saturated with nickel chelate (New England Nuclear, SMP107 model). Each well contains 100 μl of the following solution: 0.02 μM of Aurora 2; 0.5 μM of NuMA substrate; 1 μM of ATP supplemented with 0.5 μCi of ATP-[^33P]. The solutions are incubated for 45 minutes at 37° C. The test buffer is then removed and the wells are rinsed twice with 300 μl of kinase buffer. The radioactivity is measured in each well using a Packard Model Top Count NXT machine.
The background noise is measured in duplicate in wells containing the radioactive ATP alone containing buffered kinase treated in the same manner as for the other samples.
The activity of the control is determined by measuring in duplicate the radioactivity in the complete test mixture (ATP, Aurora 2 and NuMA substrate), in the absence of test compound.
The inhibition of the activity of Aurora 2 with a compound of the invention is expressed as a percentage of inhibition of the control activity in the absence of test compound. Staurosporin is added to each plate as inhibition control.

| IC50 (CDK2/cyclin E) | EC50 (HeLa) | IC50 (Aurora 2) | SMILES |
| --- | --- | --- | --- |
| > 10000 nM | 8390 nM | 325 nM | CC(C)N(CCNc1ccc(S(=O)(=O)Oc2ccc3nc(NC(=O)C4(N)CCCC4)sc3c2)cc1)C(C)C [Example 41, 4-(2-diisopropylaminoethylamino)benzenesulfonic acid 2-[(1-aminocyclopentanecarbonyl)amino]benzothiazol-6-yl ester] |
| 25 nM | 16 nM | 172 nM | CC(C)N(CCNc1ccc(S(=O)(=O)Oc2ccc3nc(NC(=O)C4CC4)sc3c2)cc1)C(C)C [Example 12, 4-(2-diisopropylaminoethylamino)benzenesulfonic 2-(cyclopropanecarbonylamino)benzothiazol-6-yl ester] |
| 40 nM | 79 nM | 3180 nM | CCC(=O)Nc1nc2ccc(OS(=O)(=O)c3ccc(NCCN(C(C)C)C(C)C)cc3)cc2s1 [Example 57, 4-(2-diisopropylaminoethylamino)benzenesulfonic acid 2-propionylaminobenzothiazol-6-yl ester hydrochloride] |
| 25 nM | 16 nM | 172 nM | CC(C)NCCNc1ccc(S(=O)(=O)Oc2ccc3nc(NC(=O)C4CC4)sc3c2)cc1 [Example 53, 4-(2-isopropylaminoethylamino)benzenesulfonic 2-(cyclopropanecarbonylamino)benzothiazol-6-yl ester hydrochloride] |
| 136 nM | 289 nM | 2890 nM | CC(C)N(CCNc1ccc(S(=O)(=O)Oc2ccc3nc(NC(=O)C4CCCC4)sc3c2)cc1)C(C)C [Example 45, 4-(2-Diisopropylaminoethylamino)benzenesulfonic acid 2-(cyclo-pentanecarbonylamino)benzothiazol-6-yl ester] |
| 107 nM | 122 nM | 826 nM | CC(=O)Nc1nc2ccc(OS(=O)(=O)c3ccc(NCCNC(C)C)cc3)cc2s1 [Example 65, 4-(2-isopropylaminoethylamino)benzenesulfonic acid 2-acetylaminobenzothiazol-6-yl ester] |
| 6980 nM | 4430 nM | 68 nM | O=C(Nc1nc2ccc(OS(=O)(=O)c3cccs3)cc2s1)C1CC1 [Example 33h, Thiophene-2-sulfonic acid 2-(cyclopro-panecarbonylamino)benzothiazol-6-yl ester] |
| 105 nM | 2510 nM | 258 nM | CC(C)(CNc1ccc(S(=O)(=O)Oc2ccc3nc(NC(=O)C4CC4)sc3c2)cc1)OP(=O)(O)O [Example 89, 4-(2-methyl-2-phosphonooxypropylamino)benzene-sulfonic acid 2-(cyclopropanecarbonylamino)benzothiazol-6-yl ester] |
| 105 nM | 199 nM | 2800 nM | CC(C)N(CCNc1ccc(S(=O)(=O)Oc2ccc3nc(NC(=O)C4CCC4)sc3c2)cc1)C(C)C [Example 60, 4-(2-diisopropylaminoethylamino)benzenesulfonic acid 2-(cyclobutanecarbonylamino)benzothiazol-6-yl ester hydrochloride] |
| 108 nM | 76 nM | 3080 nM | COCC(=O)Nc1nc2ccc(OS(=O)(=O)c3ccc(NCCN(C(C)C)C(C)C)cc3)cc2s1 [Example 44, 4-(2-Diisopropylaminoethylamino)benzenesulfonic acid 2-(2-methoxyacetylamino)benzothiazol-6-yl ester] |
| 19 nM | 80 nM | 105 nM | CC(C)(O)CNc1ccc(S(=O)(=O)Oc2ccc3nc(NC(=O)C4CC4)sc3c2)cc1 [Example 11, 4-(2-hydroxy-2-methylpropylamino)benzene-sulfonic 2-(cyclopropanecarbonylamino)benzothiazol-6-yl ester] |
| > 10000 nM | > 12500 nM | 6940 nM | O=C(Nc1nc2ccc(OS(=O)(=O)c3ccc(-c4ccccn4)s3)cc2s1)C1CC1 [Example 85, 5-pyridin-2-ylthiophene-2-sulfonic acid 2-(cyclopropanecarbonylamino)benzothiazol-6-yl ester] |
| 92 nM | 807 nM | 34 nM | CNc1ccc(S(=O)(=O)Oc2ccc3nc(NC(=O)C4CC4)sc3c2)cc1 [Example 10, 4-methylaminobenzenesulfonic 2-(cyclopropane-carbonylamino)benzothiazol-6-yl ester] |
| 49 nM | 36 nM | 2010 nM | CC(=O)Nc1nc2ccc(OS(=O)(=O)c3ccc(NCCN(C(C)C)C(C)C)cc3)cc2s1 [Example 43, 4-(2-Diisopropylaminoethylamino)benzenesulfonic acid 2-acetylaminobenzothiazol-6-yl ester] |
| 73 nM | 43 nM | 5830 nM | CC(C)C(=O)Nc1nc2ccc(OS(=O)(=O)c3ccc(NCCN(C(C)C)C(C)C)cc3)cc2s1 [Example 55, 4-(2-diisopropylaminoethylamino)benzenesulfonic acid 2-isobutyrylaminobenzothiazol-6-yl ester hydrochloride] |
| 79 nM | 8370 nM | 1050 nM | CC(C)(O)CNc1ccc(S(=O)(=O)Oc2ccc3nc(NC(=O)CCc4cccnc4)sc3c2)cc1 [Example 63, 4-(2-hydroxy-2-methylpropylamino)benzene-sulfonic acid 2-(3-pyrid-3-ylpropionylamino)benzothiazol-6-yl ester hydro-chloride] |
| 68 nM | 611 nM | 65 nM | O=C(Nc1nc2ccc(OS(=O)(=O)c3ccc(NCCCn4ccnc4)cc3)cc2s1)C1CC1 [Example 9, 4-(3-imidazol-1-ylpropylamino)benzenesulfonic 2-(cyclopropanecarbonylamino)benzothiazol-6-yl ester] |
